Measured values published in patent US20120064056A1, “DICHLORACETATE IN COMBINATION WITH CLINICALLY HIGH LEVELS OF CARDIOPROTECTIVE OR HEMODYNAMIC DRUGS” (THE GOVERNORS OF THE UNIVERSITY OF ALBERTA TEC Edmonton, priority 2002, published 2012).

Test system: isolated rat hearts subjected to low flow demand ischemia
Assay: Isolated working rat heart, low flow demand ischemia: cardiac function and efficiency
Conditions: for Aortic Outflow / Cardiac Output / Coronary Flow / HR × PSP / Heart Rate / Peak Systolic Pressure: DCA 2 mM, diltiazem 0.8 μM, metoprolol 1 μM
Method: Hearts were trimmed of excess tissue, and the pulmonary artery and the opening to the left atrium were then cannulated. After 15 min of Langendorff perfusion, hearts were switched to the working mode by clamping the aortic inflow line from the Langendorff reservoir and opening the left atrial inflow line. The perfusate was delivered from an oxygenator into the left atrium at a constant preload pressure of 11 mm Hg. […] The afterload was set at a hydrostatic pressure of 80 mm Hg. […] Palmitate was bound to the albumin as described previously ([…]., et al. J Biol. Chem. 267:3825-3831 (1992)). […] For the aerobic model hearts, all tested compounds were introduced into the heart 5 minutes into the working mode following Langendorff Perfusion. Spontaneously beating hearts were used in all perfusions. Heart rate and aortic pressure were measured with a Biopac Systems Inc. blood pressure transducer connected to the aortic outflow line. Cardiac output and aortic flow were measured with Transonic […] ultrasonic flow probes in the preload and afterload lines, respectively. Coronary flow was calculated as the difference between cardiac output and aortic flow. […] Cardiac work was calculated as the product of systolic pressure and cardiac output. Cardiac efficiency was defined as a ratio of cardiac work to MVO2. […] All tested compounds were introduced into the perfusate five minutes into initiation of aerobic perfusion.

[1] = low flow ischemia: aerobic period
[2] = low flow ischemia: ischemic period

## COCCc1ccc(OCC(O)CNC(C)C)cc1 (stereo not drawn) [Metoprolol, metoprolol]
Low flow demand ischemia, FIG. 24, FIG. 30
  cardiac work, in words: no significant changes
Low flow demand ischemia, FIG. 25, FIG. 31
  oxygen consumption, in words: no significant changes
Low flow demand ischemia, Table 1
  peak systolic pressure, effect in words: no significant increase
Low flow demand ischemia, Table 1, compared to control
  heart rate, effect in words: no significant increase
Low flow demand ischemia, Table 2
  coronary flow (coronary outflow), effect in words: no significant increase
[1]
  Aortic Outflow: 25 ± 2 mL/min
  Cardiac Output: 47 ± 2 mL/min
  Coronary Flow: 22 ± 1 mL/min
  HR × PSP: 30 ± 2 beats · min^−1 · mmHg · 10^−2
  Heart Rate: 216 ± 10 beats · min^−1
  Peak Systolic Pressure: 141 ± 7 mmHg
[2]
  Aortic Outflow: 17 ± 3 mL/min
  Cardiac Output: 31 ± 4 mL/min
  Coronary Flow: 14 ± 1 mL/min
  HR × PSP: 30 ± 2 beats · min^−1 · mmHg · 10^−2
  Heart Rate: 216 ± 10 beats · min^−1
  Peak Systolic Pressure: 141 ± 7 mmHg
low-flow ischemic period, FIG. 23, FIG. 29
  cardiac function, in words: no significant changes
